Source: patent EP4467141A1, “PYRAZOLO-QUINOLINES AS SELECTIVE INHIBITORS OF GENOTOXIC STRESS-INDUCED IKK/NF- KB PATHWAYS FOR CANCER THERAPY” (Max-Delbrück-Centrum für Molekulare Medizin in der …, priority 2023, dated 2024)
Where two headings read alike, the source gives them in different places.

Key:
[1] = target: T1, PIK3C2G (PI3K-C2 gamma) (Homo sapiens, UniProt O75747); experiment: Kinase panel study; type: biochemical; settings: for inhibition at 1 µM: 1000nM; for IC50: in vitro kinase panel, criterion of at most 2000 nM
T1 construct: purchased Thermo Fisher Scientific
T1 sequence (O75747 1-1486): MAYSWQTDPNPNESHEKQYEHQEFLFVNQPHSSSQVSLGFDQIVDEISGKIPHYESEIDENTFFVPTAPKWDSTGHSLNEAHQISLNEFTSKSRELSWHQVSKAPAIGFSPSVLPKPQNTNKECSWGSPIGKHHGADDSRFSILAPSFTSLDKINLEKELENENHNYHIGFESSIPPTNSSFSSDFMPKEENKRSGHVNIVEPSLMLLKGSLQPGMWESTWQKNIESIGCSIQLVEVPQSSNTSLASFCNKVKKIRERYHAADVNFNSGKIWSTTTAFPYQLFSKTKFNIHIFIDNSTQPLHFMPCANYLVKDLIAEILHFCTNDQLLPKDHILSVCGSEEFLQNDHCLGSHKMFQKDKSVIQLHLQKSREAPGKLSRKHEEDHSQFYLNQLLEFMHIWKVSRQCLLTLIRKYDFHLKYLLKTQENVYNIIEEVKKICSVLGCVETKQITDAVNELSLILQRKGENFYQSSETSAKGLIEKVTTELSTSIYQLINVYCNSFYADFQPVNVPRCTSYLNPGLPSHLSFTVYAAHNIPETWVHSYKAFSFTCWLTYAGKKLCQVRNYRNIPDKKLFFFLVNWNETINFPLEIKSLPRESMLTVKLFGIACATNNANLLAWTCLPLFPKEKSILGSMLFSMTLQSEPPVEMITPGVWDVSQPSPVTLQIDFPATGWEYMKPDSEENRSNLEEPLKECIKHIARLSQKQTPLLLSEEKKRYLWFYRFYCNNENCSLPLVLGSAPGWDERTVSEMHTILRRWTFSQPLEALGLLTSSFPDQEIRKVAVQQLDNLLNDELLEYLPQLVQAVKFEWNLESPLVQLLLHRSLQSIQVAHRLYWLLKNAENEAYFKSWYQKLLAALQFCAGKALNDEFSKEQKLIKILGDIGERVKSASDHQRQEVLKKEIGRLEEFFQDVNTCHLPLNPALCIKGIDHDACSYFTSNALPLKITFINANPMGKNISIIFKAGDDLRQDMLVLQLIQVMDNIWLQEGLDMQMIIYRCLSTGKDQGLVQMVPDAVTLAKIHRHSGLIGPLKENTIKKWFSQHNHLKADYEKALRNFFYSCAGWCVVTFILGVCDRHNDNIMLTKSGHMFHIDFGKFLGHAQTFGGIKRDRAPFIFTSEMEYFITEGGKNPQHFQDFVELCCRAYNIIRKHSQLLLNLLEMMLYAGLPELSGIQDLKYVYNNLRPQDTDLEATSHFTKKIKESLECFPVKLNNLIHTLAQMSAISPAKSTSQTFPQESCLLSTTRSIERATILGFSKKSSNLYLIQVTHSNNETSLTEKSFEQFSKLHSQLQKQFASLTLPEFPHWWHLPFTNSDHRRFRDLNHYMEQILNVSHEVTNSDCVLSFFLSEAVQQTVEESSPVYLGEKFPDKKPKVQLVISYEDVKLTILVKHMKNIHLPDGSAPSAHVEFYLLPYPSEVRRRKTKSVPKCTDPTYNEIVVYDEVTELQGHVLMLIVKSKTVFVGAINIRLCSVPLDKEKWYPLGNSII
Outline: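 Outsourced panel screen. Format: ZLyte or Adapta, run per the manufacturer's procedures. Read-out: inhibition (%) at a single dose of 10 µM or 1 µM; IC50s also generated.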

[2] = target: T2, MAP4K2 (GCK) (Homo sapiens, UniProt Q12851); experiment: Kinase panel study; type: biochemical; settings: for inhibition at 1 µM: 1000nM
T2 construct: purchased Thermo Fisher Scientific
T2 sequence (Q12851 1-820): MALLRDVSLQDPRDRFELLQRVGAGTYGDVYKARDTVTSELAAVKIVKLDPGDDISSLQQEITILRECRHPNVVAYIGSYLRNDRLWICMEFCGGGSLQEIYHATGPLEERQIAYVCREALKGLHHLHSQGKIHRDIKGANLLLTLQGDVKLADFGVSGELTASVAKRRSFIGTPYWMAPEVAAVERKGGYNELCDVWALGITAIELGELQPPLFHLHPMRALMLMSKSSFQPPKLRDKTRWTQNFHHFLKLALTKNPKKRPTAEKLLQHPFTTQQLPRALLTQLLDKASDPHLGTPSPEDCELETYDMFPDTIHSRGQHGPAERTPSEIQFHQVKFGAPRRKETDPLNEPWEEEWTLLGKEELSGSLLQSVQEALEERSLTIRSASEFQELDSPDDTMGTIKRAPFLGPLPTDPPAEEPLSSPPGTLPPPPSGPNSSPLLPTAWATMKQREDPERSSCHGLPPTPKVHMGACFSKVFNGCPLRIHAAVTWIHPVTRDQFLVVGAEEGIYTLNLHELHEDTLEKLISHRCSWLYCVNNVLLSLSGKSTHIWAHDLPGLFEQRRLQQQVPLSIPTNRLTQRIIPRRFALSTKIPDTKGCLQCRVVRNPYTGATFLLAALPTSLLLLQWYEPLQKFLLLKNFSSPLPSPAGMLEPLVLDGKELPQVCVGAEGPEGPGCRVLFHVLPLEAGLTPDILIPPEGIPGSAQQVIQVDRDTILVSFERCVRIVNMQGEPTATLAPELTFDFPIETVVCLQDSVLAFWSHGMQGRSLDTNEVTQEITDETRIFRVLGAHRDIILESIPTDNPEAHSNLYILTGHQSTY
Outline: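 In vitro, kinase panel; ZLyte or Adapta SOP; single-concentration testing (1 or 10 µM); output = % inhibition, plus IC50 in panel.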

[3] = read-out: Percentage of inhibition
[4] = 10000nM, read-out: Percentage of inhibition
[5] = PIK3C2G (PI3K-C2 gamma), compound at 10µM, read-out: % of Inhibition
[6] = MAP4K2 (GCK), compound at 10µM, read-out: % of Inhibition

| inhibition at 10 µM [1, 5] [%] | inhibition at 10 µM [2, 6] [%] | Compound | inhibition at 1 µM [1, 3] [%] | inhibition at 10 µM [1, 4] [%] | IC50 [1] [µM] | inhibition at 1 µM [2, 3] [%] | inhibition at 10 µM [2, 4] [%] |
| --- | --- | --- | --- | --- | --- | --- | --- |
| – | – | COc1ccc2c(c1OC)c(=O)n1c3ccc(O)cc3c3ccnc2c31 [MW01, 5-Hydroxy-10,11-dimethoxy-9H-benzo[c]indolo[3,2,1-ij][1,5]naphthyridin-9-one] | 92 | 94 | ≤ 2 | 50 | 77 |
| 35 | 70 | COc1ccc2c(c1)c1ccnc3c4nc(OC)ccc4c(=O)n2c13 [MW01-E6, 5,15-dimethoxy-1,11,14-triazapentacyclo[10.7.1,0^2,7.0^8,^20.0^13,^18]icosa-2(7),3,5,8(20),9,11,13(18),14,16-nonaen-19-one] | – | – | – | – | – |
| 81 | 98 | O=c1c2cc(O)ccc2c2nccc3c4cc(O)ccc4n1c32 [MW01-E10, 5,16-dihydroxy-1,11-diazapentacyclo[10.7.1.0^2,^7.0^8,^20.0^13,^18]icosa-2(7),3,5,8(20),9,11,13(18),14,16-nonaen-19-one] | – | – | – | – | – |
| 50 | 81 | COc1ccc2c(c1)c1ccnc3c4ccnc(OC)c4c(=O)n2c13 [MW01-E14, 5,17-dimethoxy-1,11,16-triazapentacyclo[10.7.1.0^2,^7.0^8,^20.0^13,^18]icosa-2(7),3,5,8(20),9,11,13(18),14,16-nonaen-19-one] | – | – | – | – | – |
| 81 | 93 | O=c1c2cnccc2c2nccc3c4cc(O)ccc4n1c32 [MW01-E18, 5-hydroxy-1,11,16-triazapentacyclo[10.7.1.0^2,^7.0^8,^20.0^13,^18]icosa-2(7),3,5,8(20),9,11,13(18),14,16-nonaen-19-one] | – | – | – | – | – |
| – | – | COc1ccc2cc3c(N)nn(C(=O)c4cccc(N(C)C)c4)c3nc2c1 [MW05, (3-Amino-7-methoxypyrazolo[3,4-b]quinolin-1-yl)-[3-(dimethylamino)phenyl]methanone] | 56 | 87 | ≤ 2 | 13 | 10 |
| 27 | 2 | COc1ccc2nc3c(cc2c1)c(N)nn3C(=O)c1cccc(N(C)C)c1 [MW05-E2, 1-[3-(dimethylamino)benzoyl]-6-methoxy-1H-pyrazolo[3,4-b]quinolin-3-amine] | – | – | – | – | – |
